Test results: US20230101046A1, “ANAPLASTIC LYMPHOMA KINASE CHIMERIC ANTIGEN RECEPTORS AND METHODS OF USE” (The Children's Medical Center Corporation, priority 2020, published 2023)

Legend:
Kelly or SH-SY5Y cells = test: Viability / proliferation of neuroblastoma cell lines treated with lorlatinib; assay type: cell-based, human; settings: 100 nM
Procedure: First generation ALK tyrosine kinase inhibitors (TKIs), such as crizotinib, have limited therapeutic efficacy in neuroblastoma, while the third generation ALK TKI, lorlatinib, is effective against mutated neuroblastoma (Infarinato N R, et al., The ALK/ROS1 Inhibitor PF-06463922 Overcomes Primary Resistance to Crizotinib in ALK-Driven Neuroblastoma. Cancer Discov 2016 January; 6(1):96-107). The effects of lorlatinib on ALK viability and expression in neuroblastoma cells was evaluated. Several neuroblastoma cell lines with various ALK genetic alterations, including NB-1 (ALK WT amplified), IMR-32 (ALK WT), NBL-S(ALK WT), SH-SY5Y (mutated ALK^F1174L), Kelly (mutated ALK^F1174L), were treated with increasing doses of lorlatinib (FIG. 10A). Viability was measured at 48 hours.
In white 96-well plates, 3×10^4 cells/mL were grown in triplicates. The treatment with lorlatinib was done after 24 hour. Cell growth was analyzed 5 days after treatment using Cell Titer-GloMax assay (Promega, Fitchburg, Wis., USA), according to the manufacturer's instructions. In 24-well plates, 5×10^4 cells/mL were grown in triplicates. […] Apoptosis was measured 48 hours after treatment by flow cytometry after staining with the FITC Annexin V and propidium iodide (PI) Staining Solution Apoptosis Detection Kit I (BD Pharmingen) according to the manufacturer's instructions.

[1] = system: Eμ-myc/ALK systemic tumors; test: Adoptive transfer in CD19+/ALK+ systemic leukemia model; assay type: in vivo, mice
Procedure: The CD19+/ALK+systemic leukemia model was used to validate and rank cytolytic activity of ALK CARs in vivo. Adoptive transfer of ALK CAR-T cells was conducted in mice with Eμ-myc/ALK systemic tumors. Mice were treated with cytophspamide (CTX, 100 mg/kg) alone (n=8), cytophosphamide plus CAR-CD19 (15×10^6 based on GFP+) (n=8), or cytophosphamide plus CAR-ALK #5 (15×10^6 based on GFP+) (n=8). Untreated mice (n=6) were used as a negative control. FIG. 5A provides a survival curve of these treated mice.
Circulating CD19+/ALK+ tumor cells were found in peripheral blood (FIG. 5B, Left). An ALK+ tumor mass was isolated close to lymph node (FIG. 5B, Right). FACS analysis was also conducted on the 6 out of 8 mice that survived more than two months. No tumor cells were found in peripheral blood of these mice (FIG. 5C).

Row | Compound | reduction of proliferation (Kelly or SH-SY5Y cells) | tumor cells in peripheral blood by FACS ([1]; CD19+/ALK+ cells) | survival of mice ([1]; Eμ-myc/ALK systemic tumors, CTX 100 mg/kg, CAR-T 15×10^6 based on GFP+)
1 | C[C@H]1Oc2cc(cnc2N)-c2c(nn(C)c2C#N)CN(C)C(=O)c2ccc(F)cc21 [Lorlatinib, lorlatinib] | less than 50% |  | 
2 | O=P1(N(CCCl)CCCl)NCCCO1 (stereo not drawn) [cyclophosphamide] |  | CD19+/ALK+ cells were found in one mouse | died within one month
